# Earlier results as cited in US9023888B2, “Composition of monoterpenoids having bactericidal properties” (priority 2011, dated 2015).
# Legend:
# E. coli = conditions: for E. coli MBC (v/v %) / E. coli MBC ppm / E. coli MIC (v/v %) / E. coli MIC ppm: broth dilution
# Staph. aureus = conditions: broth dilution
Compound,antibacterial activity (summary of Table 2 in words) (E. coli; E. coli and Staph. aureus data of Table 2),E. coli MBC (v/v %) (E. coli),E. coli MBC ppm (E. coli),E. coli MIC (v/v %) (E. coli),E. coli MIC ppm (E. coli),Staph. aureus MBC (v/v %) (Staph. aureus),Staph. aureus MBC ppm (Staph. aureus),Staph. aureus MIC (v/v %) (Staph. aureus),Staph. aureus MIC ppm (Staph. aureus)
Cc1ccc(C(C)C)cc1 [p-cymene],no effect at all,>8.0 v/v %,No level,>8.0 v/v %,No level,>8.0 v/v %,No level,>8.0 v/v %,No level
CC1=CCC(C(C)(C)O)CC1 (centres unmarked) [∝-terpineol],,0.06 v/v %,600 ppm,0.06 v/v %,600 ppm,0.25 v/v %,2500 ppm,0.25 v/v %,2500 ppm
